# Laboratory results reported in patent publication US4444758A, “Nonapeptide for treating addictive drug withdrawal conditions” (priority 1981, dated 1984).
# Where no end group is shown, it is not given here.
# Tests used:
# morphine-dependent mouse = assay: Inhibition of the naloxone-triggered withdrawal leaps of the morphine-dependent mouse; assay type: in vivo; details: 30 mg . kg^-1 s.c., positive control
# Method: In order to produce the dependence a compressed tablet, which contained 75 mg of morphine (base) and which progressively dissolved with continuous liberation of the morphine, was implanted under the dorsal skin of male mice (weight about 22 g). On the third day after the implantation the morphine antagonist naloxone in a dosage of 0.1 mg/kg was administered subcutaneously to the animals in order to trigger off the withdrawal leaps.
# After the injection, the leaps of each individual animal were counted for 20 minutes. The group median value was calculated from the total leaps of 8 animals, which formed a group. As the positive control the animals of one group received 30 mg/kg of morphine subcutaneously 30 minutes before administration of the antagonist. Two to four groups received 10 ml/kg of physiological sodium chloride solution (negative control) 2 hours before the naloxone administration intravenously. The remaining groups received DSIP in various dosages (0.01, 0.015, 0.03, 0.06 and 0.1 mg/kg, intravenously and 0.03, 0.1 and 0.3 mg/kg, subcutaneously) 2 hours before the naloxone administration. The dosage median values and, respectively, control median values were calculated from all individual values per dosage and, respectively, the positive and negative controls.
# rats [1] = details: rat, in vivo
# Method: (§1) Toxicological studies were carried out on 12 male and 12 female rats as well as on 3 male and 3 female dogs per dosage. For this purpose DSIP was dissolved in physiological sodium chloride solution and administered intravenously daily for 4 weeks in the dosages of 0.6, 1.8 and 6 mg/kg. At an interval of 2 weeks during these studies the hematological, hematochemical and the urine status were determined, and the electrocardiogram was recorded and analyzed
# (§2) At the termination of the aforementioned studies all animals were painlessly killed and there followed the autopsy besides the removal of organ samples for histological investigations.
# rats [2] = assay: 4-week intravenous toxicological study in rats
# Method: as §1, §2
# dogs [3] = details: dog, in vivo
# Method: as §1, §2
# dogs [4] = assay: 4-week intravenous toxicological study in dogs
# Method: as §1, §2
# [5] = test system: alcoholic or methadone- or heroin-dependent patients; details: human, in vivo
# Method: Of the 25 alcoholic patients 8 were on admission already in delirium tremens to a medium to severe degrees. After the first subjective and objective withdrawal signs manifested themselves the patients received up to 4 intravenous infusions of in each case 0.0214 mg/kg of DSIP daily. For this purpose, the substance was dissolved in physiological sodium chloride solution and infused in the course of 5 minutes.
# The duration of treatment amounted to a maximum of 3 days.
# [6] = maximum dosage (6 mg/kg i.v. daily for 4 weeks)
Compound,"Leaps/animal (median) (morphine-dependent mouse; 30 minutes before naloxone 0.1 mg/kg s.c., leaps counted for 20 minutes) [Leaps/animal]",% of a negative control (morphine-dependent mouse; 30 minutes before naloxone) [%],Tolerance of the dosages (side effects) (rats [1]),Local tolerance at the injection sites (rats [1]; iv),Histological analysis of about 30 organs and of the injection sites (rats [2]; i.v. daily for 4 weeks),Changes in the electrocardiogram (rats [2]; [6]),"Hematological, hematochemical and urine values (rats [2]; [6])",Tolerance of the dosages (side effects) (dogs [3]),Local tolerance at the injection sites (dogs [3]; iv),Histological analysis of about 30 organs and of the injection sites (dogs [4]; i.v. daily for 4 weeks),Changes in the electrocardiogram (dogs [4]; [6]),"Hematological, hematochemical and urine values (dogs [4]; [6])","Tolerance of DSIP: poor, number of patients [5] [patients]"
"CN1CC[C@]23c4c5ccc(O)c4O[C@H]2[C@@H](O)C=C[C@H]3[C@H]1C5 [Morphine, morphine]",43,27,–,–,–,–,–,–,–,–,–,–,–
"WAGGDASGE [DSIP, Trp--Ala--Gly--Gly--Asp--Ala--Ser--Gly--Glu]",–,–,tolerated without any side effects,excellent,not the slightest evidence of damage to organs,no changes in the electrocardiogram,within the physiological limits,tolerated without any side effects,excellent,not the slightest evidence of damage to organs,no changes in the electrocardiogram,within the physiological limits,2
